Source: ChEMBL document CHEMBL1921746, “Chemical constituents of the rhizomes of Hedychium coronarium and their inhibitory effect on the pro-inflammatory cytokines production LPS-stimulated in bone marrow-derived dendritic cells” (Bioorg Med Chem Lett, 2011)
pIC50: −log10 of the molar value. Calls of active or inactive are those of the source. No cut-off for these calls is given here.

How the values were obtained:
[1] = Antiinflammatory activity in C57BL/6 mouse BMDC assessed as inhibition of LPS-stimulated TNF-alpha production preincubated for 1 hr before LPS-stimulation measured after 16 hrs by ELISA; assay type: functional
[2] = Antiinflammatory activity in C57BL/6 mouse BMDC assessed as inhibition of LPS-stimulated IL-6 production preincubated for 1 hr before LPS-stimulation measured after 16 hrs by ELISA; assay type: functional
[3] = Antiinflammatory activity in C57BL/6 mouse BMDC assessed as inhibition of LPS-stimulated IL-12p40 production preincubated for 1 hr before LPS-stimulation measured after 16 hrs by ELISA; assay type: functional
[4] = Cytotoxicity against C57BL/6 mouse BMDC assessed as reduction of cell viability by MTT assay
[5] = system: BMDC; assay: Antiinflammatory activity in C57BL/6 mouse BMDC assessed as inhibition of LPS-stimulated TNF-alpha production up to 50 uM preincubated for 1 hr before LPS-stimulation measured after 16 hrs by ELISA; assay type: functional
[6] = system: BMDC; assay: Antiinflammatory activity in C57BL/6 mouse BMDC assessed as inhibition of LPS-stimulated IL-6 production up to 50 uM preincubated for 1 hr before LPS-stimulation measured after 16 hrs by ELISA; assay type: functional
[7] = system: BMDC; assay: Antiinflammatory activity in C57BL/6 mouse BMDC assessed as inhibition of LPS-stimulated IL-12p40 production up to 50 uM preincubated for 1 hr before LPS-stimulation measured after 16 hrs by ELISA; assay type: functional

Row | Structure (SMILES) | pIC50 [1] | pIC50 [2] | pIC50 [3] | Activity [4] | inhibition [5] | inhibition [6] | inhibition [7]
1 | CC1(C)CCC[C@]2(C)[C@H]3C/C=C(/C=O)CC(O)CC3=CC(=O)[C@@H]12 (some centres not stated) [CORONARIN H] | 4.57 | 5.05 | 5.10 |  |  |  | 
2 | C=C1CC[C@H]2C(C)(C)CCC[C@]2(C)[C@H]1C/C=C1/CC(OC)OC1=O (some centres not stated) [CORONARIN D METHYL ETHER] |  |  |  | Toxic |  |  | 
3 | CC[C@H](CC[C@@H](C)[C@H]1CC[C@H]2[C@@H]3CC=C4C[C@@H](O)CC[C@]4(C)[C@H]3CC[C@]12C)C(C)C |  |  |  |  | inactive | inactive | inactive
4 | CC[C@H](/C=C/[C@@H](C)[C@H]1CC[C@H]2[C@@H]3CC=C4C[C@@H](O)CC[C@]4(C)[C@H]3CC[C@]12C)C(C)C |  |  |  |  | inactive | inactive | inactive
5 | C=C1CC[C@H]2C(C)(C)CCC[C@]2(C)[C@H]1CCC1=CC(OC)OC1=O (some centres not stated) [CORONARIN G] | 4.90 | 5.12 | 5.18 |  |  |  | 
6 | C=C[C@@](C)(O)CC/C=C(\C)CCC=C(C)C |  |  |  |  | inactive | inactive | inactive
7 | C[S+]([O-])c1ccc(-c2nc(-c3ccc(F)cc3)c(-c3ccncc3)[nH]2)cc1 (configuration not stated) [SB-203580] | 5.14 | 5.45 | 5.30 |  |  |  | 
8 | C=C1CC[C@H]2C(C)(C)CCC[C@]2(C)[C@H]1C/C=C1/CC(O)OC1=O (some centres not stated) [CORONARIN D] | 4.38 |  |  |  |  |  | 
9 | C=C1[C@@H](O)C[C@H]2C(C)(C)CCC[C@]2(C)[C@H]1/C=C/C1=CC(=O)OC1O (some centres not stated) [HEDYFORRESTIN C] | 4.98 | 5.47 | 6.72 |  |  |  | 
10 | C=C1[C@@H](O)C[C@H]2C(C)(C)[C@@H](O)CC[C@]2(C)[C@H]1C/C=C1/COCC1O (some centres not stated) [CORONARIN I] |  |  |  | Toxic |  |  | 
11 | CC[C@H](CC[C@@H](C)[C@H]1CC[C@H]2[C@@H]3CC=C4C[C@@H](O[C@@H]5O[C@H](CO)[C@@H](O)[C@H](O)[C@H]5O)CC[C@]4(C)[C@H]3CC[C@]12C)C(C)C |  |  |  |  | inactive | inactive | inactive
